Columns and labels:
[1] = system: S. Typhimurium SL1344; experiment: Novobiocin potentiation (checkerboard) assay; assay type: cell-based; conditions: LB, 18 hours, D66 up to 150 μM, novobiocin up to 100 μg/mL
Protocol: A, B) Dose response curves monitoring S. Typhimurium (SL1344) or E. coli (K12) growth from an OD600 of 0.01, normalized to growth in 2% DMSO under the indicated condition. Mean and SEM of at least three biological replicates performed with technical triplicates; curve fit: sigmoidal, 4P L. C-E) Checkerboard assays of S. Typhimurium SL1344 growth from an OD600 of 0.01 in LB for 18 hours with novobiocin (up to 100 μg/mL) and (C) PMB (up to 48 μM), (D) JDI (up to 150 μM), or (E) D66 (up to 150 μM). Growth was normalized to growth in 2% DMSO, with the darkest blue representing 100% growth and white representing 0%.
Novobiocin potentiation assays: Overnight LB-grown cultures were diluted in LB to an optical density at 600 nm (OD600) of 0.01 and distributed into polystyrene 96-well flat-bottom plates (Greiner, 655185). […] The final DMSO concentration was at or below 2%. Plates were grown at 37° C. with shaking for 18 hours and OD600 was monitored (BioTek Synergy H1).

[2] = system: S. aureus FDA209; experiment: Laurdan generalized polarization membrane fluidity assay; assay type: cell-based; conditions: mid-log S. aureus FDA209
Protocol: Mid-log phase S. aureus FDA209 cells were used for all experiments. A) Membrane fluidity was evaluated with a Laurdan generalized polarization (GP) assay. Cells were exposed at time 0 to DMSO, benzyl alcohol (BnOH, a membrane fluidizer [50 mM]), or D66 (1x MIC95=130 μM). Mean and SEM of three biological replicates performed with technical triplicates. B) Membrane permeability was monitored by PI fluorescence. Cells were exposed at time 0 to DMSO, SDS [0.3%], or D66. Samples were processed at the timepoints shown. Mean and SEM of three biological replicates performed with technical triplicates. C) Intracellular pH was monitored with the fluorescent probe BCECF-AM. Cells were exposed at time 0 to DMSO, the protonophore CCCP [100 μM], or D66. Mean and SEM of three biological replicates performed with technical triplicates. D) Intracellular ATP levels measured using the Promega BacTiter-Glo kit after 30 minutes of treatment with DMSO, chloramphenicol (Chlor), or D66. Mean and SEM of three biological replicates performed with technical triplicates. E) Respiration rates of cells incubated with resazurin and treated at time 0 as indicated. Mean and […]

[3] = system: staphylococcal biofilm; experiment: Staphylococcal biofilm formation; assay type: cell-based; conditions: 18 hours in TSB, subinhibitory concentrations
Protocol: Biofilm formation was monitored after 18 hours in TSB with subinhibitory concentrations of DMSO, rifampin (1x MIC95=0.05 μg/mL), vancomycin (1x MIC95=1 μg/mL), or D66 (1x MIC95=130 μM). A-D) Crystal violet staining for accumulated biofilm mass measured at A595. Mean and
SEM of three biological replicates performed with technical triplicates. E-F). Biofilms were stained with Syto 9 (live cells) and PI (damaged/dead cells) and imaged with confocal fluorescent microscopy. Volume of live, dead, and total cell volume was calculated (positive volume=positive voxel; 1 voxel=0.0367 μm3). Asterisks indicate P≤0.05 as determined by one-way ANOVA compared to DMSO. Mean and SDs derived from a minimum of four fields of view each from two biological replicates.

[4] = Murine pharmacokinetic analysis; assay type: in vivo, C57BL/6 mice; conditions: mice, 50 mg/kg IP
Protocol: FIG. 7A-B. D66 pharmacokinetic parameters. Values were calculated by compartmental modeling using Phoenix WinNonlin. Data fit a two-compartment model (r=0.9976) with bolus dosing. A) Decay curve. B) Parameter values.
(§1) Murine pharmacokinetic analyses and infections: Three female C57BL/6 mice were injected intraperitoneally (IP) with 50 mg/kg of D66 formulated in DMSO (50 μL). […] Three mice were initially dosed and observed for 24 hours to determine tolerability. […] Plasma D66 levels were measured using a liquid chromatography coupled to tandem mass spectrometry (LC/MS/MS) assay by the University of Colorado Cancer Center Drug Discovery and Development Shared Resource. The assay used monitored the transition of D66 (376 m/z->176 m/z) and was linear from 1-1000 ng/ml with an accuracy and precision of 90.3%+10.4% (% CV) based on quality control (QC) samples included with analyzed unknown samples.

[5] = system: 5-day-old staphylococcal biofilms; experiment: 5-day-old staphylococcal biofilms; assay type: cell-based; conditions: biofilms established 5 days in TSB, treated 18 hours, crystal violet
Protocol: (A-D). For the indicated strain, biofilms established in TSB for 5-days were treated for 18 hours with DMSO, rifampin (1x MIC95=0.05 μg/mL), vancomycin (1x MIC95=1 μg/mL), or D66 (Table 1). The remaining biofilm extracellular matrix was stained with crystal violet and the A595 was measured. Mean and SEM of three biological replicates performed with technical triplicates are shown. Asterisks indicate P≤0.05 as determined by one-way ANOVA compared to DMSO.

[6] = system: staphylococcal persister cells; experiment: Staphylococcal persister cell viability in broth; assay type: cell-based; conditions: overnight cultures in broth, D66 at MIC95
Protocol: A-D) Overnight cultures of the indicated strains were treated at time 0 with DMSO, ciprofloxacin [4 μg/mL], vancomycin [10 μg/mL], or the corresponding MIC95 concentration of D66 (1x MIC95=130 μM, 49 μg/mL). Cultures were plated for enumeration of CFU at time points indicated. Mean and SEM of three biological replicates. E) RAW 264.7 macrophage-like cells and HeLa cells were infected with S. aureus USA300, at MOIs of 0.5 and 2.5, respectively. Cells were treated two hours after infection with DMSO (gray circle on Y axis), or dilutions of D66 from 40 μM. After 8 hours of infection, cells were lysed and plated for enumeration of CFU. Mean and SEM of biological duplicates performed with technical triplicates each with six dilutions of D66. The IC50 value that was calculatable is indicated.

[7] = Murine tolerability after a single dose; assay type: in vivo, C57BL/6 mice; conditions: mice
Protocol: as §1

## O=C(Nc1cc(Cl)cc(Cl)c1)N1CCCN(Cc2ccccc2)CC1 [D66]
[1]
  potentiation of growth inhibition with novobiocin: did not potentiate novobiocin
[2]
  membrane fluidity: rapidly increases membrane fluidity
[3]
  staphylococcal biofilm formation: inhibits staphylococcal biofilm formation
[4]; female, C57BL/6, mouse, plasma, two-compartment model, read-out: elimination (terminal) half-life (converted)
  half-life: 3 h
[4]
  peak serum concentration: 3.5 µM
  steady state volume of distribution (Vss): 43.3 L/kg
[4]; two-compartment model, 50 mg/kg
  elimination (terminal) half-life: 3.0 h
[5]
  reduction of 5-day-old biofilms: minimally effective
[6]
  number of viable staphylococcal persister cells: did not reduce the number of viable staphylococcal persister cells in broth
[7]; 50 mg/kg IP, observed for 24 hours
  observable toxicity and gross pathological lesions in liver, kidney, and gastrointestinal tissues: lack of observable toxicity and gross pathological lesions
[7]; single intraperitoneal dose of 50 mg/kg, after 24 hours
  adverse effects (hunching, tachypnea, or abnormal ambulation): No adverse effects
